Molecular target: T1, full length AKT1 (Homo sapiens, UniProt P31749)
T1 construct: His tag (from vector pFastBacHTb) (N); made in house; host or cells: baculovirus; Sf9 / T. ni insect cells
Experiment: AKT enzyme assay (substrate phosphorylation, SPA)
Type: biochemical
Details: in at least one experimental run; pIC50 = -log(IC50), IC50 in molar units; 10 nM activated AKT enzyme, 4 uM ATP; read-out: pIC50 against full length AKT1 (converted)
Excerpt: Cloning of Full-length Human (FL) AKT1:
Full-length human AKT1 gene was amplified by PCR from a plasmid containing myristylated-AKT1-ER (gift from Robert T. Abraham, Duke University under MTA, described in Klippel et al. in Molecular and Cellular Biology 1998 Volume 18 p. 5699) using the 5′ primer: SEQ.ID NO: 2, 5′ […] 3′ and the 3′ primer: SEQ.ID NO: 3, […] 3′. The 5′ primer included a BamHI site and the 3′ primer included an XhoI site for cloning purposes. The resultant PCR product was subcloned in pcDNA3 as a BamHI/XhoI fragment. A mutation in the sequence (TGC) coding for a Cysteine^25 was converted to the wild-type AKT1 sequence (CGC) coding for an Arginine^25 by site-directed mutagenesis using the QuikChange® Site Directed Mutagenesis Kit (Stratagene). […] For expression/purification purposes, AKT1 was isolated as a BamHI/XhoI fragment and cloned into the BamHI/XhoI sites of pFastbacHTb (Invitrogen).
Expression of FL Human AKT1:
Expression was done using the BAC-to-BAC Baculovirus Expression System from Invitrogen (catalog #10359-016). Briefly 1) the cDNA was transferred from the FastBac vector into bacmid DNA, 2) the bacmid DNA was isolated and used to transfect Sf9 insect cells, 3) the virus was produced in Sf9 cells, 4) T. ni cells were infected with this virus and sent for purification.
Purification of FL Human AKT1:
For the purification of full-length AKT1, 130 g sf9 cells (batch #41646WO2) were resuspended in lysis buffer (buffer A, 1 L, pH 7.5) containing 25 mM HEPES, 100 mM NaCl, and 20 mM imidazole. The cell lysis was carried out by Avestin (2 passes at 15K-20K psi). Cell debris was removed by centrifuging at 16K rpm for 1 hour and the supernatant was batch bound to 10 ml Nickel Sepharose HP beads at 4 C for over night. The beads were then transferred to column and the bound material was eluted with buffer B (25 mM HEPES, 100 mM NaCl, 300 mM imidazole, pH 7.5). AKT eluting fractions were pooled and diluted 3 fold using buffer C (25 mM HEPES, 5 mM DTT; pH 7.5). The sample was filtered and chromatographed over a 10 mL Q-HP column pre-equilibrated with buffer C at 2 mL/min.
The Q-HP column was washed with 3 column volume (CV) of buffer C, then step eluted with 5 CV 10% D, 5 CV 20% D, 5 CV 30% D, 5 CV 50% D and 5 CV of 100% D; where buffer D is 25 mM HEPES, 1000 mM NaCl, 5 mM DTT; pH 7.5. 5 mL fractions collected. AKT containing fractions were pooled and concentrated to 5 ml. The protein was next loaded to a 120 ml Superdex 75 sizing column that was pre-equilibrated with 25 mM HEPES, 200 mM NaCl, 5 mM DTT; pH 7.5. 2.5 mL fractions were collected.
AKT 1 eluting fractions were pooled, aliquoted (1 ml) and stored at −80 C. Mass spec and SDS-PAGE analysis were used to confirm purity and identity of the purified full-length AKT1.
Compounds of the present invention are tested for AKT 1, 2, and 3 protein serine kinase inhibitory activity in substrate phosphorylation assays. This assay examines the ability of small molecule organic compounds to inhibit the serine phosphorylation of a peptide substrate. The substrate phosphorylation assays use the catalytic domains of AKT 1, 2, or 3. AKT 1, 2 and 3 are also commercially available from Upstate USA, Inc. The method measures the ability of the isolated enzyme to catalyze the transfer of the gamma-phosphate from ATP onto the serine residue of a biotinylated synthetic peptide SEQ. ID NO: 5 (Biotin-ahx-ARKRERAYSFGHHA-amide). Substrate phosphorylation is detected by the following procedure: […]

T1 sequence (P31749 whole entry): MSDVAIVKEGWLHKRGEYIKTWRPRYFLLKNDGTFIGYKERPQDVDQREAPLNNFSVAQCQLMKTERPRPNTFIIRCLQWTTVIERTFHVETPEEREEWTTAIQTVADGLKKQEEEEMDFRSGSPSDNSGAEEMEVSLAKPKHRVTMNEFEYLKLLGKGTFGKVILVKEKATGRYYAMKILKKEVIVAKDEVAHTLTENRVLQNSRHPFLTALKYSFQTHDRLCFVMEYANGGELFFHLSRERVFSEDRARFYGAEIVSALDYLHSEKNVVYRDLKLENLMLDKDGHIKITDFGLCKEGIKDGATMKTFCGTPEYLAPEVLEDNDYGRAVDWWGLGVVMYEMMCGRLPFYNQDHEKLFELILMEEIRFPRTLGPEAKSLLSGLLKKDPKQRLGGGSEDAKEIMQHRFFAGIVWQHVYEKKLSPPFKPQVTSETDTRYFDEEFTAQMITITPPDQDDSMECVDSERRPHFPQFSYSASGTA

## Cn1ncc(Cl)c1-c1cc(NC(=O)[C@@H](CN)Cc2ccccc2F)sc1Cl [Example 10, (2R)-3-amino-N-[5-chloro-4-(4-chloro-1-methyl-1H-pyrazol-5-yl)-2-thienyl]-2-[(2-fluorophenyl)methyl]propanamide]
  IC50: 5.01 nM

## Cn1ncc(Cl)c1-c1cc(NC(=O)[C@H](CN)Cc2ccc(F)c(F)c2)sc1Cl [Example 7, (2S)-3-amino-N-[5-chloro-4-(4-chloro-1-methyl-1H-pyrazol-5-yl)-2-thienyl]-2-[(3,4-difluorophenyl)methyl]propanamide]
  IC50: 1.58 nM

## Cn1nccc1-c1c(Cl)sc(NC(=O)C(CN)c2ccccc2)c1Cl (centres unmarked) [Example 1, 3-amino-N-[3,5-dichloro-4-(1-methyl-1H-pyrazol-5-yl)-2-thienyl]-2-phenylpropanamide]
  IC50: 158 nM

## Cn1ncc(Cl)c1-c1cc(NC(=O)[C@H](CN)Cc2cccc(F)c2)sc1Cl [Example 13, (2S)-3-amino-N-[5-chloro-4-(4-chloro-1-methyl-1H-pyrazol-5-yl)-2-thienyl]-2-[(3-fluorophenyl)methyl]propanamide]
  IC50: 2.51 nM

## Cn1ncc(Cl)c1-c1cc(NC(=O)[C@@H](CN)Cc2ccccc2)sc1Cl [Example 5, (2R)-3-amino-N-[5-chloro-4-(4-chloro-1-methyl-1H-pyrazol-5-yl)-2-thienyl]-2-(phenylmethyl)propanamide]
  IC50: 10 nM

— US8592475B2, “Inhibitors of Akt activity” (GlaxoSmithKline LLC, priority 2008, dated 2013)
